Laboratory results from ChEMBL document CHEMBL3227964 (J Med Chem, 1979).
The source made the active and inactive calls. No cut-off for these calls is given here.

Legend:
Escherichia coli [1] = assay: Induction of sensitization to irradiation in Escherichia coli AB1157 under hypoxic condition assessed as reduction in colony formation at 1 mM measured after irradiation; format: functional, organism-based
Escherichia coli [2] = assay: Antimicrobial activity against Escherichia coli AB1157 assessed as reduction in colony formation at 1 mM; format: organism-based; settings: in vivo, 1000 µM
Escherichia coli [3] = assay: Induction of sensitization to irradiation in Escherichia coli AB1157 under oxic condition assessed as reduction in colony formation at 1 mM measured after irradiation; format: organism-based; settings: in vivo, 1000 µM

SMILES | Activity (Escherichia coli [1]) | Activity (Escherichia coli [2]) | Activity (Escherichia coli [3])
O=[N+]([O-])c1ncn(CCO)c1Cl | Active | Non-toxic | Toxic
O=[N+]([O-])c1cnc2n1CCO2 | Active | Non-toxic | Toxic
COCC(O)Cn1ccnc1[N+](=O)[O-] (configuration not stated) | Active |  | 
